Experimental data from article PMC6856721, “Discovery of a Novel DNA Gyrase-Targeting Antibiotic through the Chemical Perturbation of Streptomyces venezuelae Sporulation” (Cell Chemical Biology, 2019).
Converted amounts (≈) assume the structure as drawn. “And” between values parts separate entries of the source, which are not always exact repeats. Identical values can stand only once. Like-named read-outs stand apart in the source and are kept apart here.

Legend:
[1] = molecular target: T1, S. aureus gyrase (Staphylococcus aureus, UniProt P0A0K8+P20831); assay: S. aureus gyrase supercoiling; assay type: biochemical; settings: purified S. aureus gyrase, wild-type
T1 construct: purchased Inspiralis Inc. SAS4001 (supercoiling kit); SAGC001 (cleavage assay kit)
Method: (§1) 1 U of DNA gyrase was incubated with 0.5 μg of relaxed pBR322 DNA in a 30 μl reaction at 37°C for 30 minutes under the following conditions: 35 mM Tris.HCl (pH 7.5), 24 mM KCl, 4 mM MgCl2, 2 mM DTT, 1.8 mM Spermidine, 1 mM ATP, 6.5% (w/v) glycerol and 0.1 mg/mL BSA. Each reaction was stopped by the addition of 30 μl chloroform/iso-amyl alcohol (24:1) and 20 μl Stop Dye (40% sucrose, 100 mM Tris.HCl (pH 7.5), 10 mM EDTA, 0.5 μg/mL bromophenol blue), before being loaded on a 1.0% TAE (Tris.acetate […], EDTA […]) agarose gel. Gels run at 90 V for 2 hours. Bands were visualized by ethidium staining for 20 minutes and destaining in water for 20 minutes. Gels were scanned using a gel documentation system (GeneGenius, Syngene, Cambridge, UK) and percent inhibition levels obtained with gel scanning software (GeneTools, Syngene, Cambridge,UK).
(§2) As for E. coli gyrase except assay conditions were: 40 mM HEPES. KOH (pH 7.6), 10 mM magnesium acetate, 10 mM DTT, 2 mM ATP, 500 mM potassium glutamate, and 0.05 mg/mL BSA. Gels run at 80 V for 3 hours.

[2] = test system: S. venezuelae; assay: S. venezuelae sporulation inhibition disk diffusion assay (whi phenotype, SEM); assay type: cell-based, Streptomyces venezuelae; settings: filter disk, 10 μL of 2.5 mM
Method: A lawn of S. venezuelae spores was plated on MYM agar plates and allowed to dry. For the initial screen, 2 μL of each molecule at 2.5 mM was spotted directly to the agar plate. For known antibiotics or follow-up screening, 10 μL of molecule was added to a drug disk, allowed to dry, and placed on the agar plate. The S. venezuelae plate was incubated at 30°C for 48 hours and photographed. The whi phenotype was identified by eye. Hits were selected based on their ability to induce a whi phenotype at sub-inhibitory concentrations and scored by eye on the size of the induced whi region and the zone of inhibition.
To prepare samples for SEM, the agar plate containing a lawn of S. venezuelae was cut at the edge of the zone of inhibition and fixed with 2% glutaraldehyde in 0.1% sodium cacodylate buffer followed by sputter coating with gold. Images were obtained and processed using a FEI XL30 ESEM. The contrast of the resulting images was adjusted to highlight the appearance or lack of spore formation.

[3] = molecular target: T2, E. coli gyrase (Escherichia coli, UniProt P0AES4+P0AES6); assay: E. coli gyrase supercoiling; assay type: biochemical; settings: purified E. coli gyrase
T2 construct: purchased Inspiralis Inc. K0001
Method: as §1

[4] = molecular target: T3, S. aureus gyrase GyrA S84L (Staphylococcus aureus, UniProt P0A0K8+P20831, S84L); assay: Supercoiling inhibition of S. aureus gyrase mutant GyrA S84L; assay type: biochemical
T3 construct: purchased Inspiralis Inc. SAAS84L01
Method: as §1, §2

[5] = molecular target: T4, S. aureus topoisomerase IV (Staphylococcus aureus, UniProt P0C1S7+P0C1U9); assay: S. aureus topoisomerase IV decatenation; assay type: biochemical; settings: purified S. aureus topoisomerase IV; no activity up to; read-out: IC50, topoisomerase IV-catalyzed decatenation
T4 construct: purchased Inspiralis Inc. SAD4001
Method: 1 U of topoisomerase IV was incubated with 200 ng kDNA DNA in a 30 μl reaction at 37 C for 30 minutes under the following conditions: 50 mM HEPES-KOH (pH 7.6), 100 mM potassium glutamate, 10 mM magnesium acetate, 10 mM dithiothreitol, 1 mM ATP and 50 μg/mL BSA. Each reaction was stopped by the addition of 30 μl chloroform/iso-amyl alcohol (24:1) and 20 μl Stop Dye, before being loaded on a 1.0% TAE agarose gel. Gels run at 90 V for 2 hours.
As for E coli topoisomerase IV except assay conditions were: 50 mM Tris-HCl (7.5), 5 mM MgCl2, 5 mM DTT, 1.5 mM ATP, 350 mM potassium glutamate and 0.05 mg/mL BSA. Gels run at 80 V for 2 hours.

[6] = molecular target: T1, S. aureus gyrase; assay: S. aureus gyrase cleavage; assay type: biochemical
Method: 1 U of gyrase was incubated with 0.5 μg of supercoiled pBR322 DNA in a 30 μL reaction at 37 C for 30 minutes under the following conditions: 40 mM HEPES. KOH (pH 7.6), 10 mM magnesium acetate, 10 mM DTT, 100 mM potassium glutamate and 0.05 mg/mL albumin. 0.2 % SDS and 0.1 mg/mL Proteinase K were added before a further incubation at 37°C for 30 minutes. Each reaction was stopped by the addition of 30 μL chloroform/iso-amyl alcohol (24:1) and 20 μL Stop Dye, before being loaded on a 1.0% TAE agarose gel. Gels run at 80 V for 2 hours.

[7] = test system: S. aureus; assay: Minimum inhibitory concentration, broth dilution, S. aureus strains; assay type: cell-based, Staphylococcus aureus
Method: (§3) The minimum inhibitory concentration (MIC) defines the lowest concentration of a compound required to inhibit the growth. A single colony of the bacteria being tested was grown in 5 mL of liquid growth media. Following overnight growth, the culture was diluted 100-fold into fresh media and incubated at 37°C until the cells reached mid-log phase (OD600 of 0.3 to 0.5). The cells were diluted 10,000-fold into fresh media and the MIC determined for each of the strains by adding 2 μL of the diluted compound to 198 μL of the diluted cells in a clear 96-well plate. The plates were incubated at 37°C overnight and the optical density at 600 nm was measured for each well. All MIC assays were performed in triplicate.

[8] = test system: E. coli; assay: Minimum inhibitory concentration, broth dilution, E. coli strains; assay type: cell-based, Escherichia coli
Method: as §3

## O=C(/C=C/c1cccc2cccnc12)NNC(=O)c1cc(-c2ccccc2)on1 [EN-7]
[1]
  IC50: 0.085 µM
[2]
  Growth inhibition (zone of inhibition): significant zone of inhibition
  Sporulation inhibition below the MIC for growth: striking band of inhibited sporulation
[3]
  IC50: 1.75 µM
[4]
  IC50: 9.96 µM
[4]; GyrA S84L vs wild-type S. aureus gyrase, supercoiling inhibition
  Increase of IC50 relative to the wild-type enzyme: > 100 fold and ~100 fold
[4]; S. aureus gyrase
  Susceptibility of gyrase mutant GyrA S84L: less susceptible
[5]
  IC50: > 100 µM
[6]; S. aureus gyrase, pBR322
  Occurrence of DNA nicking: does increase the occurrence of DNA nicking
  Stabilization of gyrase-DNA double-stranded cleavage complex: does not stabilize
[6]; co-treatment with ciprofloxacin
  Effect on ciprofloxacin-induced formation of the double-stranded cleavage complex: does not prevent
[7]; S. aureus clinical strain C0018, read-out: MIC
  MIC: >128 µM
[7]; S. aureus clinical strain C0032, read-out: MIC
  MIC: >128 µM
[7]; S. aureus clinical strain C0117, read-out: MIC
  MIC: >128 µM
[7]; Staphylococcus aureus, ATCC29213, S. aureus ATCC 29213 (wild-type, parent strain), read-out: MIC
  MIC: 1 µM
[7]; Staphylococcus aureus, ATCC29213, nine EN-7-resistant S. aureus ATCC 29213 mutants (mut-1 to mut-9), 16 μM highest concentration tested
  MIC: > 16 µM
[7]; Staphylococcus aureus, ATCC29213, three S. aureus ATCC 29213 GyrB K417E allelic exchange strains
  MIC: > 128 µM
[7]; Staphylococcus aureus, ATCC 29213 / ATCC 33591, S. aureus three laboratory strains (ATCC 29213, TCH1516, ATCC 33591) and four clinical strains (C0017, C0024, C0023, C0019), read-out: MIC
  MIC: 0.4 µg/mL
[7]; Staphylococcus aureus, ATCC33519, S. aureus ATCC 33519, read-out: MIC
  MIC: 1 µM
[7]; Staphylococcus aureus, S. aureus TCH 1516, read-out: MIC
  MIC: 1 µM
[7]; Staphylococcus aureus, S. aureus clinical strain C0017, read-out: MIC
  MIC: 1 µM
[7]; Staphylococcus aureus, S. aureus clinical strain C0018, read-out: MIC
  MIC: > 128 µM
[7]; Staphylococcus aureus, S. aureus clinical strain C0019, read-out: MIC
  MIC: 1 µM
[7]; Staphylococcus aureus, S. aureus clinical strain C0023, read-out: MIC
  MIC: 1 µM
[7]; Staphylococcus aureus, S. aureus clinical strain C0024, read-out: MIC
  MIC: 1 µM
[7]; Staphylococcus aureus, S. aureus clinical strain C0032, read-out: MIC
  MIC: > 128 µM
[7]; Staphylococcus aureus, S. aureus clinical strain C0112, read-out: MIC
  MIC: 4 µM
[7]; Staphylococcus aureus, S. aureus clinical strain C0117, read-out: MIC
  MIC: > 128 µM
[8]; E. coli BW25113, read-out: MIC
  MIC: >64 µM
[8]; E. coli MC1061, read-out: MIC
  MIC: >64 µM
[8]; Escherichia coli, BW25113, E. coli BW25113, read-out: MIC
  MIC: > 64 µM
[8]; Escherichia coli, BW25113, E. coli BW25113 ΔtolC ΔbamB, outer-membrane and efflux-deficient
  MIC: 1 µM (≈ 0.384 µg/mL)
[8]; Escherichia coli, E. coli MC1061, read-out: MIC
  MIC: > 64 µM
